A word on the IC50: it is the concentration needed to halve the response being measured. The low end stands for inhibition by little substance, the high end for a need for much substance.

The values that follow come from patent US20240246960A1 (adMare Therapeutics Society, priority 2021, published 2024).

This test addresses T1, DNA-PK phosphorylation at Serine 2056 (Homo sapiens, UniProt P78527).
T1 construct: host or cells: FaDu
Description: Cellular Assay for Inhibition of DNA-PK Phosphorylation at Serine 2056 (FaDu cells, neocarzinostatin, sandwich ELISA). Type of test: cell-based. The conditions noted are these: Table 3. On the procedure:
FaDu cells were purchased from ATCC and maintained in MEM alpha medium (Life Technologies, cat. no. 12561) supplemented with 10% fetal bovine serum, and 1% GlutaMAX at 37° C. supplemented with 5% CO2. 50,000 cells were seeded to each well of a 96-well cell culture plate in 50 μL of culture medium and incubated for 16-24 hours. Three-fold serially diluted compounds were prepared in DMSO. Culture media was used to prepare compound treatments to 0.3% DMSO (dimethyl sulphoxide) content. Compound treatments were added to the cells for 1 hour prior incubation, followed by the addition of neocarzinostatin in fresh culture medium to 1 μg/mL final concentration for an additional 2 hours incubation to induce DNA DSBs (double-strand breaks). DMSO controls were incubated with fresh culture medium alone for the additional two hours incubation. The cells were then lysed and frozen at −20° C. Cell lysates were thawed on wet ice and protein concentrations quantified by BCA Protein Assay (Thermo # 23225). Lysis buffer was used to normalize lysates by protein content and all lysates were then investigated by sandwich ELISA by means of DNA-PK-specific antibodies (Abcam ab44815: total DNA-PK; ab124918: phosphoserine-2056 DNA-PK) in sandwich ELISA format on the MSD S600MM platform (MesoScale Discovery). % inhibition was calculated for all data points: =1−(DATA_PT−AVERAGE(DMSO controls))/(AVERAGE(NCS controls)−AVERAGE(DMSO controls)). Logarithm of the molar concentration of compound was plotted against percent inhibition to calculate IC50 values, with curve fit settings for data fit to log(inhibitor) vs. normalized response—Variable slope using curve fit software (GraphPad Prism).
On the technique in general: In an ELISA, binding on a coated surface is turned into a signal by an enzyme label.
The compound `CNC(=O)c1ccnc(N[C@H]2CC[C@@H](Oc3nc(N4CCOCC4)cc4ncc(NS(C)(=O)=O)cc34)CC2)n1` yielded an IC50 of less than 0.1 µM.
Then `Cc1ccc(F)c(N[C@H]2CC[C@@H](Oc3nc(N4CCOCC4)cc4ncc(NS(C)(=O)=O)cc34)CC2)n1` [LFA1001, N-[5-[4-[(3-fluoro-6-methyl-2-pyridyl)amino]cyclohexoxy]-7-morpholino-1,6-naphthyridin-3-yl]methanesulfonamide], with 0.1 to 1 µM.
Then `CS(=O)(=O)Nc1cnc2cc(N3CCOCC3)nc(O[C@H]3CC[C@@H](Nc4cccnc4)CC3)c2c1` [LFA1002, N-[7-morpholino-5-[4-(3-pyridylamino)cyclohexoxy]-1,6-naphthyridin-3-yl]methanesulfonamide], with less than 0.1 µM; and `Cc1cccnc1N[C@H]1CC[C@@H](Oc2nc(N3CCOCC3)cc3ncc(NS(C)(=O)=O)cc23)CC1` [LFA1003, N-[5-[4-[(3-methyl-2-pyridyl)amino]cyclohexoxy]-7-morpholino-1,6-naphthyridin-3-yl]methanesulfonamide], with less than 0.1 µM; and `CS(=O)(=O)Nc1cnc2cc(N3CCOCC3)nc(O[C@H]3CC[C@@H](Nc4ccc(F)cn4)CC3)c2c1` [LFA1004, N-[5-[4-[(5-fluoro-2-pyridyl)amino]cyclohexoxy]-7-morpholino-1,6-naphthyridin-3-yl]methanesulfonamide], with less than 0.1 µM.
Take `COc1cccnc1N[C@H]1CC[C@@H](Oc2nc(N3CCOCC3)cc3ncc(NS(C)(=O)=O)cc23)CC1` [LFA1005, N-[5-[4-[(3-methoxy-2-pyridyl)amino]cyclohexoxy]-7-morpholino-1,6-naphthyridin-3-yl]methanesulfonamide]: the IC50 is less than 0.1 µM.
Then `Cc1cccc(N[C@H]2CC[C@@H](Oc3nc(N4CCOCC4)cc4ncc(NS(C)(=O)=O)cc34)CC2)n1` [LFA1006, N-[5-[4-[(6-methyl-2-pyridyl)amino]cyclohexoxy]-7-morpholino-1,6-naphthyridin-3-yl]methanesulfonamide], with less than 0.1 µM.
Then `CS(=O)(=O)Nc1cnc2cc(N3CCOCC3)nc(O[C@H]3CC[C@@H](Nc4ncccc4F)CC3)c2c1` [LFA1007, N-[5-[4-[(3-fluoro-2-pyridyl)amino]cyclohexoxy]-7-morpholino-1,6-naphthyridin-3-yl]methanesulfonamide], with less than 0.1 µM; and `CS(=O)(=O)Nc1cnc2cc(N3CCOCC3)nc(O[C@H]3CC[C@@H](Nc4ncccc4C#N)CC3)c2c1` [LFA1008, N-[5-[4-[(3-cyano-2-pyridyl)amino]cyclohexoxy]-7-morpholino-1,6-naphthyridin-3-yl]methanesulfonamide], with less than 0.1 µM.
The compound `Cc1cnc(N[C@H]2CC[C@@H](Oc3nc(N4CCOCC4)cc4ncc(NS(C)(=O)=O)cc34)CC2)c(C)c1` [LFA1009, N-[5-[4-[(3,5-dimethyl-2-pyridyl)amino]cyclohexoxy]-7-morpholino-1,6-naphthyridin-3-yl]methanesulfonamide] returned an IC50 of less than 0.1 µM.
Then `COc1ccc(C)nc1N[C@H]1CC[C@@H](Oc2nc(N3CCOCC3)cc3ncc(NS(C)(=O)=O)cc23)CC1` [LFA1010, N-[5-[4-[(3-methoxy-6-methyl-2-pyridyl)amino]cyclohexoxy]-7-morpholino-1,6-naphthyridin-3-yl]methanesulfonamide], with 0.1 to 1 µM; and `Cc1cnc(N[C@H]2CC[C@@H](Oc3nc(N4CCOCC4)cc4ncc(NS(C)(=O)=O)cc34)CC2)c(F)c1` [LFA1011, N-[5-[4-[(3-fluoro-5-methyl-2-pyridyl)amino]cyclohexoxy]-7-morpholino-1,6-naphthyridin-3-yl]methanesulfonamide], with less than 0.1 µM.
Then `Cc1ccncc1N[C@H]1CC[C@@H](Oc2nc(N3CCOCC3)cc3ncc(NS(C)(=O)=O)cc23)CC1` [LFA1012], with less than 0.1 µM.
Then `COc1cncc(N[C@H]2CC[C@@H](Oc3nc(N4CCOCC4)cc4ncc(NS(C)(=O)=O)cc34)CC2)c1` [LFA1013, N-[5-[4-[(5-methoxy-3-pyridyl)amino]cyclohexoxy]-7-morpholino-1,6-naphthyridin-3-yl]methanesulfonamide], with 0.1 to 1 µM; and `CS(=O)(=O)Nc1cnc2cc(N3CCOCC3)nc(O[C@H]3CC[C@@H](Nc4ccncc4Br)CC3)c2c1` [LFA1014, N-[5-[4-[(3-bromo-4-pyridyl)amino]cyclohexoxy]-7-morpholino-1,6-naphthyridin-3-yl]methanesulfonamide], with less than 0.1 µM.
Take `Cc1ncccc1N[C@H]1CC[C@@H](Oc2nc(N3CCOCC3)cc3ncc(NS(C)(=O)=O)cc23)CC1` [LFA1015, N-[5-[4-[(2-methyl-3-pyridyl)amino]cyclohexoxy]-7-morpholino-1,6-naphthyridin-3-yl]methanesulfonamide]: the IC50 is less than 0.1 µM.
Regarding `COc1ccncc1N[C@H]1CC[C@@H](Oc2nc(N3CCOCC3)cc3ncc(NS(C)(=O)=O)cc23)CC1` [LFA1016, N-[5-[4-[(4-methoxy-3-pyridyl)amino]cyclohexoxy]-7-morpholino-1,6-naphthyridin-3-yl]methanesulfonamide], the IC50 is less than 0.1 µM.
Then `Cc1ccc(N[C@H]2CC[C@@H](Oc3nc(N4CCOCC4)cc4ncc(NS(C)(=O)=O)cc34)CC2)cn1` [LFA1017, N-[5-[4-[(6-methyl-3-pyridyl)amino]cyclohexoxy]-7-morpholino-1,6-naphthyridin-3-yl]methanesulfonamide], with 0.1 to 1 µM; and `Cc1nc(N[C@H]2CC[C@@H](Oc3nc(N4CCOCC4)cc4ncc(NS(C)(=O)=O)cc34)CC2)ccc1F` [LFA1018, N-[5-[4-[(5-fluoro-6-methyl-2-pyridyl)amino]cyclohexoxy]-7-morpholino-1,6-naphthyridin-3-yl]methanesulfonamide], with less than 0.1 µM; and `Cc1ccc(N[C@H]2CC[C@@H](Oc3nc(N4CCOCC4)cc4ncc(NS(C)(=O)=O)cc34)CC2)nc1` [LFA1019, N-[5-[4-[(5-methyl-2-pyridyl)amino]cyclohexoxy]-7-morpholino-1,6-naphthyridin-3-yl]methanesulfonamide], with less than 0.1 µM.
In the case of `CS(=O)(=O)Nc1cnc2cc(N3CCOCC3)nc(O[C@H]3CC[C@@H](Nc4cccnn4)CC3)c2c1` [LFA1020, N-[7-morpholino-5-[4-(pyridazin-3-ylamino)cyclohexoxy]-1,6-naphthyridin-3-yl]methanesulfonamide], the IC50 was less than 0.1 µM.
Then `CS(=O)(=O)Nc1cnc2cc(N3CCOCC3)nc(O[C@H]3CC[C@@H](Nc4ccc(C(F)(F)F)cn4)CC3)c2c1` [LFA1021, N-[7-morpholino-5-[4-[[5-(trifluoromethyl)-2-pyridyl]amino]cyclohexoxy]-1,6-naphthyridin-3-yl]methanesulfonamide], with less than 0.1 µM; and `CS(=O)(=O)Nc1cnc2cc(N3CCOCC3)nc(O[C@H]3CC[C@@H](Nc4ccc(C#N)cn4)CC3)c2c1` [LFA1022, N-[5-[4-[(5-cyano-2-pyridyl)amino]cyclohexoxy]-7-morpholino-1,6-naphthyridin-3-yl]methanesulfonamide], with less than 0.1 µM.
Then `CS(=O)(=O)Nc1cnc2cc(N3CCOCC3)nc(O[C@H]3CC[C@@H](Nc4ccc(C#N)nn4)CC3)c2c1` [LFA1023, N-[5-[4-[(6-cyanopyridazin-3-yl)amino]cyclohexoxy]-7-morpholino-1,6-naphthyridin-3-yl]methanesulfonamide], with less than 0.1 µM; and `CS(=O)(=O)Nc1cnc2cc(N3CCOCC3)nc(O[C@H]3CC[C@@H](Nc4ncc(F)cc4F)CC3)c2c1` [LFA1024, N-[5-[4-[(3,5-difluoro-2-pyridyl)amino]cyclohexoxy]-7-morpholino-1,6-naphthyridin-3-yl]methanesulfonamide], with less than 0.1 µM.
As to `COc1cc(C#N)cnc1N[C@H]1CC[C@@H](Oc2nc(N3CCOCC3)cc3ncc(NS(C)(=O)=O)cc23)CC1` [LFA1025, N-[5-[4-[(5-cyano-3-methoxy-2-pyridyl)amino]cyclohexoxy]-7-morpholino-1,6-naphthyridin-3-yl]methanesulfonamide], the IC50 is less than 0.1 µM.
`N#Cc1cnc(N[C@H]2CC[C@@H](Oc3nc(N4CCOCC4)cc4ncc(O)cc34)CC2)cn1` [LFA1026, 5-[[4-[(3-hydroxy-7-morpholino-1,6-naphthyridin-5-yl)oxy]cyclohexyl]amino]pyrazine-2-carbonitrile] registered an IC50 of 0.1 to 1 µM.
Then `COc1cnc(N[C@H]2CC[C@@H](Oc3nc(N4CCOCC4)cc4ncc(NS(C)(=O)=O)cc34)CC2)cn1` [LFA1028, N-[5-[4-[(5-methoxypyrazin-2-yl)amino]cyclohexoxy]-7-morpholino-1,6-naphthyridin-3-yl]methanesulfonamide], with less than 0.1 µM; and `CS(=O)(=O)Nc1cnc2cc(N3CCOCC3)nc(O[C@H]3CC[C@@H](Nc4nccnc4C(F)(F)F)CC3)c2c1` [LFA1029, N-[7-morpholino-5-[4-[[3-(trifluoromethyl)pyrazin-2-yl]amino]cyclohexoxy]-1,6-naphthyridin-3-yl]methanesulfonamide], with less than 0.1 µM.
